# In patent US20050101575A1, “Vitamin d3 derivatives and remedies using the same” (priority 2003, published 2005):
# Tested on: HL-60 cell
# Assay: Vitamin D3 antagonist effect: suppression of HL-60 cell differentiation induced by 1α,25-dihydroxyvitamin D3 (NBT reduction activity)
# Type: cell-based
# Settings: Homo sapiens, HL-60, 96 h, simultaneous treatment with 1α,25-dihydroxyvitamin D3 (1×10^−8 M); compound 1×10^−9 to 1×10^−6 M; 4 days at 37° C.; read-out: IC50 (nM), suppression of NBT reduction activity induction in HL-60 cell
# Description: (1) HL-60 cell line which had been purchased from a cell bank (Japanese Cancer Research Resource Bank, Cell No: JCRB0085) was used. The cell line was stored as a frozen storage stock to prevent the change of cell characteristics attributable to successive cultivations. Prior to the initiation of experiments, the cells were defrosted and successive culturing was stared. For the experiments, cells whose successive culturing was from one month to about a half year were used. The successive culturing was carried out by centrifugally collecting cells which were in the state of suspension culture, and diluting the collected cell concentrate with a fresh culture medium at a ratio of about 1/100 (1-2×10^4 cells/ml). As the culture medium, an RPMI-1640 medium containing 10% fetal bovine serum was used.
# The cells which were under successive culturing in the above process (1) were centrifugally collected, and they were dispersed in a culture medium at the cell concentration of 2×10^4 cells/ml. The dispersion was seeded into a 24-well culture schale at 1 ml/well. […] As the control, ethanol was added at 1 μl/well. After culturing at 37° C. for 4 days in the presence of 5% CO2, the cells were centrifugally collected.
# (3) As the parameter of differentiation inducing effect on HL-60 cells, the induction of nitroblue tetrazonium (henceforth, NBT) reduction activity was used. The NBT reduction activity was determined according to the following procedure. That is, centrifugally collected cells were suspended in a fresh culture medium, and subsequently NBT and 12-O-tetradecanoylphorbol-13-acetate were added in such a manner that their concentrations became 0.1% and 100 ng/ml, respectively. After the mixed suspension was incubated at 37° C. for 25 min, a cytospin specimen was prepared. After air drying, it was stained with Kernechtrot, and the ratio of the positive cells of NBT reduction activity was determined under an optical microscope. Percentage ratios of the positive cell ratio in a simultaneous treatment with 1 α,25-dihydroxyvitamin D3 (1×10^−8 M) and a compound of the present invention at various treating concentrations (1×10^−9 to 1×10^−6 M) to that in a single treatment with 1 α,25-dihydroxyvitamin D3 (1×10^−8 M) were plotted against treating concentrations of the compound of the present invention, and the treating concentration of the compound of the present invention at which the percentage ratio became 50% was determined as IC50 value (nM).
row,IC50 [nM],Compound
1,< 50,"C=C1CC(/C=C/[C@@H](C)[C@H]2CC[C@H]3/C(=C/C=C4/C[C@@H](O)[C@H](C)[C@H](O)C4=C)CCC[C@]23C)OC1=O (stereo partly drawn) [Compound No. 32a, 2(S)-methyl-20(R)-(2-(tetrahydro-3-vinylidene-2-furanon-5-yl)-1(E)-ethenyl)-9,10-secopregna-5(Z), 7(E), 10(19)-triene-1(S), 3(R)-diol]"
2,< 50,C=C1CC(/C=C/[C@@H](C)[C@H]2CC[C@H]3/C(=C/C=C4/C[C@@H](O)C[C@H](O)C4=C)CCC[C@]23C)OC1=O (some centres unmarked) [Compound No. 31b]

# Continued, molecule first:
row,Compound,IC50 [nM]
1,"C=C1C[C@H](C[C@@H](C)[C@H]2CC[C@H]3/C(=C/C=C4/C[C@H](O)[C@H](C)[C@H](O)C4=C)CCC[C@]23C)OC1=O [Compound No. 22b, 2(S)-methyl-20(R)-(tetrahydro-3-vinylidene-2-furanon-5-(S)-yl)methyl-9,10-s ecopregna-5(Z),7(E), 10(19)-triene-1(S),3(S)-diol]",< 50
2,"C=C1C[C@H](C[C@@H](C)[C@H]2CC[C@H]3/C(=C/C=C4/C[C@@H](O)[C@H](C)[C@H](O)C4=C)CCC[C@]23C)OC1=O [Compound No. 22d, 2(S)-methyl-20(R)-(tetrahydro-3-vinylidene-2-furanon-5-(S)-yl)methyl-9,10-s ecopregna-5(Z),7(E),10(19)-triene-1(S),3(R)-diol]",< 50
3,"C=C1CC([C@@H](C)[C@H]2CC[C@H]3/C(=C/C=C4/C[C@@H](O)C[C@H](O)C4=C)CCC[C@]23C)OC1=O (stereo partly drawn) [Compound No. 11a, 20(R)-(tetrahydro-3-vinylidene-2-furanon-5-yl)-9,10-secopregna-5(Z), 7(E), 10(19)-triene-1(S),3(R)-diol]",50 to 150
